From ChEMBL document CHEMBL1201862, “PubChem BioAssay data set” (2004)
Activity calls are given as the source filed them.

What was measured:
[1] = NIH:OVCAR-3 ovarian cancer cell cytotoxicity, dose response, PAX8 inhibitor project, plate reader, dry powder samples (AID 743044); format: functional, cell-based
[2] = cytotoxicity in OVCAR8 ovarian cancer cells, dose response, PAX8 project, cell-based, plate reader, dry powder samples (AID 743197); format: functional; conditions: OVCAR-8
[3] = IGROV1 ovarian cancer cell cytotoxicity, dose response, PAX8 inhibitor project, plate reader, dry powder samples (AID 743043); format: functional, cell-based; conditions: IGROV-1
[4] = biological target: Paired box protein Pax-8 (Homo sapiens, UniProt Q06710); experiment: inhibitors of PAX8-driven TPO luciferase reporter, dose response, RMG-I cells, cherry-pick (AID 687027); format: functional, cell-based;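 further: luciferase reporter driven by Pax8 target thyroperoxidase promoter measured by SteadyGlo luminescence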
[5] = T. cruzi growth inhibition in host cells, dose response, cell-based, plate reader, dry powder, set 2 (AID 652275); format: functional
[6] = TRPM1 promoter luciferase reporter signal decrease, dose response, MITF inhibitor project, cell-based, SK-MEL-5, dry powder, set 8 (AID 624430); format: functional
[7] = MITF Orthogonal Assay: SK-MEL-5 CTG Assay Measured in Cell-Based System Using Plate Reader - 2084-02_Inhibitor_Dose_DryPowder_Activity_Set7.; format: functional
[8] = MITF: Counter assay: A375 proliferation Measured in Cell-Based System Using Plate Reader - 2084-03_Inhibitor_Dose_DryPowder_Activity_Set8.; format: functional; conditions: A-375
[9] = A375 melanoma cell cytotoxicity, dose response, counter-screen for MITF inhibitor project, CellTiter-Glo luminescence, dry powder, set 2 (AID 624489); format: functional, cell-based; conditions: A-375;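 further: actives are compounds lowering A375 viability meaning general cytotoxicity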
[10] = A375 melanoma cell viability loss, dose response, counter-screen for MITF inhibitor project, CellTiter-Glo luminescence, dry powder, set 4 (AID 624364); format: functional, cell-based; conditions: A-375;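 further: A375 melanoma cells are MITF independent so this is a counter screen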
[11] = P. falciparum Dd2 growth inhibitors, dose response, SYBR Green, dry powder samples, set 9 (AID 1159568); format: functional, cell-based
[12] = THP-1 cell cytotoxicity, dose response, cytotoxicity control for Vif-APOBEC3G degradation inhibitor project, THP-1 cells (AID 1117359); format: functional; conditions: Human immunodeficiency virus 1, THP-1
[13] = biological target: T1, DNA repair protein RAD52 homolog (Homo sapiens, UniProt P43351); format: functional, biochemical
T1 sequence (P43351 whole entry): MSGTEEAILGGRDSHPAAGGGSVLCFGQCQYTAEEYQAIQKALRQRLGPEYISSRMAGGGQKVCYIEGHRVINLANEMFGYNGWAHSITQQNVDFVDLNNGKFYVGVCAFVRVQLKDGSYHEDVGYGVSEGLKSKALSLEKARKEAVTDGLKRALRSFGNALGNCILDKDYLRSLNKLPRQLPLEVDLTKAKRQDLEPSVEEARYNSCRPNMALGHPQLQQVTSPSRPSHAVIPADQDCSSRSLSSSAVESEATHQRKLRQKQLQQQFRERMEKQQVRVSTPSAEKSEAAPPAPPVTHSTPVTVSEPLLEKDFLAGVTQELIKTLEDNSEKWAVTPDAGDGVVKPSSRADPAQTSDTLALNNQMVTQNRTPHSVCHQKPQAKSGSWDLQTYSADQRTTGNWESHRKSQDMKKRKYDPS

[14] = Dose-response inhibition of insulin secretion in a rat insulinoma line at 5 mM glucose (AID 1117331); format: functional, cell-based; conditions: INS-1E

Paired box protein Pax-8, sequence (Q06710 whole entry): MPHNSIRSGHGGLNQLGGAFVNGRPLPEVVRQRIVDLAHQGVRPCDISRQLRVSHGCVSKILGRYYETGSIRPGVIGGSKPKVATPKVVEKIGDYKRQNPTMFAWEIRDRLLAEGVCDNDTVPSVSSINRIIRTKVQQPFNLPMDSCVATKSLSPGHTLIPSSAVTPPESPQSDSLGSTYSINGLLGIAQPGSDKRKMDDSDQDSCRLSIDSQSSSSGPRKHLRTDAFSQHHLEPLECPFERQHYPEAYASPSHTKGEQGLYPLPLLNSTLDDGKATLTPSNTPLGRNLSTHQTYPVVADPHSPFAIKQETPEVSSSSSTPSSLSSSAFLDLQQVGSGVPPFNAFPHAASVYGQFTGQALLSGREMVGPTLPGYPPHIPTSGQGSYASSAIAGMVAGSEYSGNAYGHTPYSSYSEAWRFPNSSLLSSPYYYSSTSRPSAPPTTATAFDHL

For `C[C@@H]1CN([C@@H](C)CO)C(=O)c2cc(NC(=O)Nc3ccc(C(F)(F)F)cc3)ccc2O[C@@H](C)CCCCO[C@H]1CN(C)Cc1ccc2c(c1)OCO2`, the AC50 [1] was 9.82 µM (active), the AC50 [2] was 24 µM (active) and the AC50 [3] was 29 µM (active). For the same compound, the AC50 [4] was 14.3 µM (active).
With `O=C(CN1CCOCC1)N1CCCCN2[C@@H](CO)[C@H](c3ccc(-c4ccccc4F)cc3)[C@@H]2C1` the AC50 [5] was 0.84 µM (active).
In the case of `O=C1C(Nc2ccc(F)cc2F)=C(N2CCCC2)C(=O)c2ccccc21`, the AC50 [6] is reported as 0.677 µM (active), the AC50 [7] is reported as 2.35 µM (active) and the AC50 [8] is reported as 8.05 µM (active).
For `CC(C)N1C[C@H](C)[C@@H](CN(C)Cc2ccc(Oc3ccccc3)cc2)Oc2c(C(=O)Nc3ccncc3)cccc2C1=O`, the AC50 [5] was 0.167 µM (active).
In the case of `O=C(NC1=C(N2CCOCC2)C(=O)c2ccccc2C1=O)c1ccccc1`, the AC50 [9] is reported as 31.9 µM (active) and the AC50 [10] is reported as 34.6 µM (active).
With `O=C(NC1=C(N2CCSCC2)C(=O)c2ccccc2C1=O)c1ccccc1` the AC50 [9] was 26.9 µM (active) and the AC50 [10] was 40.7 µM (active).
In the case of `O=C1C(Nc2ccc(Cl)c(Cl)c2)=C(N2CCCC2)C(=O)c2ccccc21`, the AC50 [6] is reported as 8.91 µM (active), the AC50 [7] is reported as 29.2 µM (active) and the AC50 [8] is reported as > 70 µM (inactive).
With `N#C[C@@H]1[C@H](c2ccccc2C2=CCCCC2)[C@H](CO)N1S(=O)(=O)c1ccccc1` the AC50 [11] was 13.1 µM (active).
With `CC1=CC(C)(C)N=C(Nc2nc(C)c3cc(C)cc(C)c3n2)N1` the CC50 [12] was 37.6 µM (active) and the AC50 [13] was 5.16 µM (active).
For `CC(C(O)c1ccccc1)N(C)CCOC(c1ccccc1)c1ccccc1` (stereo not given) [DIFETEROL], the IC50 [14] was > 33.3 µM (inactive).
